Test results taken from patent US5776955A, “Use of unsubstituted and substituted n-(pyrrol-1-yl)pyridinamines as anticonvulsant agents” (Hoechst Marion Roussel, Inc., priority 1996, dated 1998).
pIC50: −log10 of the molar value.

What was measured:
[1] = system: sodium channels; details: 25 nM [^3 H]batrachotoxin, rat cortex vesicular preparation, 60 min, 25° C., pH 7.4; read-out: IC50, Inhibition of [^3 H]Batrachotoxin Binding
[2] = system: mice; experiment: Supramaximal electroshock in mice (block of tonic seizure); type: in vivo, mouse (male CD-1); details: intraperitoneal, male CD-1 mice
Description: This procedure is used as to predict anticonvulsant activity of a test compound in vivo by its ability to block a full tonic seizure induced by a supramaximal electroshock stimulation as an indication of efficacy in preventing grand mal seizures. Male CD-1 mice (Charles River) weighing 18-30 grams were housed in accordance with the "NIH Guide to Care and Use of Laboratory Animals" (National Institutes of Health Care Publication 85-23, revised 1985) with a 12 hour light/dark cycle and free access to food and water. On the day of testing, animals are brought to the laboratory and randomly assigned to groups of six for the time course experiments and to test groups of ten for the dose-response experiments. The apparatus used for the test was the Wahlquist Electroshock Stimulator (Model H), which has a power source of 120 volts ac. A current of 15.5 mA lasting for 300 msec was delivered by placing the terminals of the stimulator across the eyes of the animal. This stimulus results in a tonic seizure, defined as a brief period of hindlimb flexion followed by a prolonged period of hindlimb extension. […] Protection is calculated as a normalized percent inhibition relative to a vehicle treated control group. A time course is performed to determine the peak time of drug action and then a dose response performed at the peak time to determine drug potency. Mice are dosed in a randomized fashion using a total of 4 dose groups and one vehicle control group. The ED50 value and 95% confidence limits are calculated by a computerized Litchfield and Wilcoxon analysis. Drugs are prepared dissolved in distilled water and, if insoluble a drop of surfactant is added. Drugs are routinely administered intraperitoneally for this test and given in a dosage volume of 10 ml/kg.

[3] = system: membrane sodium channels; details: Willow and Catterall, 1982; Olsen, 1986; cited from earlier work

## CCCN(c1ccncc1F)n1cc(C)c2cc(O)ccc21 [1-[(3-Fluoro-4-pyridinyl)propylamino]-3-methyl-1H-indol-5-ol]
[1]
  pIC50: 4.72

## CCCN(c1ccncc1)n1cc(C)c2ccccc21.O=C(O)/C=C\C(=O)O [3-Methyl-N-propyl-N-(4-pyridinyl)-1H-indol-1-amine maleate]
[2]; Mus musculus, ip, at peak time of drug action, read-out: ED50, inhibition of supramaximal electroshock
  ED50: 14.4 mg/kg

## NC(=O)N1c2ccccc2C=Cc2ccccc21 [Carbamazepine]
[3]
  allosteric inhibition of [^3 H]batrachotoxin binding: allosterically inhibit the binding of [^3 H]batrachotoxin to membrane sodium channels

## CCCN(c1ccncc1F)n1cc(C)c2ccccc21.Cl [N-(3-Fluoro-4-pyridinyl)-N-propyl-3-methyl-1H-indol-1-amine hydrochloride]
[2]; 30 mpk
  percent inhibition (protection), supramaximal electroshock: 50%
[2]; 60 mpk
  percent inhibition (protection), supramaximal electroshock: 50%
